Test results as given in patent US12102618B2, “Use of riluzole prodrugs to treat ataxias” (Biohaven Therapeutics Ltd., priority 2017, dated 2024).

Key:
Type in all cases: in vivo, human
[1] = test system: ataxia symptoms in subjects with spinocerebellar ataxia (SCA); experiment: Phase IIb/III randomized, double-blind, placebo-controlled trial of BHV-4157 in SCA (BHV4157-201), 8-week randomization phase: SARA; set-up: key to Total SARA change / Total SARA, Δ Btw Groups / Axial SARA [#1-4] change / Appendicular SARA [4-8] change / Total SARA change (LSmeans) / Gait [#1] change (LSmeans) / Axial Items [#1-4] change (LSmeans) / Appendicular [#5-8] change (LSmeans) / Change in Total SARA Score / Axial Items [1-4] change / Appendicular Items [5-8] change / ΔSARA (between groups): SARA points; total scale 0 (no ataxia) to 40 (severe); details: for Total SARA, week 8 StdChg / Total SARA, week 8 Δ Mean: all subjects
Method: One measure for assessment of the methods of the present invention is by using the Scale for the Assessment and Rating of Ataxia (“SARA”).
The SARA was developed as a clinician-administered instrument to measure severity of symptoms in patients with SCA. While there are multiple scales available, the SARA has been tested in many patients with SCA.
The SARA scores range from 0 (no ataxia) to 40 (severe). The SARA takes approximately 15 minutes to administer. Assessed items include: • Gait (rated 0 to 8) • Stance (0 to 6) • Sitting (0 to 4) • Speech disturbance (0 to 6) • Finger chase (0 to 4) • Nose-finger test (0 to 4) • Fast alternating hand movements (0 to 4) • Heel-shin slide (0 to 4)
Once each of the 8 categories has been assessed, the total score is calculated to determine the severity of ataxia. For motor activities of the four extremities (items 5-8), assessments are performed bilaterally and the mean values are used to obtain the total score.
The purpose of this study is to compare the efficacy of BHV-4157 versus placebo on ataxia symptoms in subjects with spinocerebellar ataxia (SCA).
(§1) Study Type: Interventional Study Design: Allocation: Randomized • Intervention Model: Parallel Assignment • Masking: Quadruple (Participant, Care Provider, Investigator, Outcomes Assessor) • Primary Purpose: Treatment • Official Title: A Phase IIb/III, Randomized, Double-blind, Placebo-controlled Trial of BHV-4157 in Adult Subjects With Spinocerebellar Ataxia Primary Outcome Measures: • To measure the change in total score on the Scale for Assessment and Rating of Ataxia (SARA) [Time Frame: The change in total score from baseline to week 8.] Secondary Outcome Measures: • To assess the safety and tolerability of BHV-4157 in subjects with SCA by measuring the frequency and severity of adverse events and discontinuations of adverse events. [Time Frame: Baseline to week 8.] Measured by the frequency and severity of adverse events and discontinuations of adverse events. • To compare efficacy of BHV-4157 with placebo on patient impression of benefit via use of the PGI-C [Time Frame: Baseline to Week 8] Change in PGI-C score
(§2) The study is a Phase IIb/III, multicenter, randomized, double-blind, 2-arm placebo-controlled parallel-group study designed to assess safety, tolerability, and efficacy signals in a population of patients with Spinocerebellar Ataxia (SCA). Subjects will be randomized to receive placebo (QD) or BHV-4157 (140 mg QD), stratified by diagnosis (genotype) and baseline severity (Gait Item of the SARA of ≤4 and >4). Subjects with SCA3 genotype will be limited to comprise up to approximately 10% of the total population so that this most common type of SCA is not over-represented.
Dosing will continue for 8 weeks. Subjects will return to the clinic two weeks after discontinuing study medication for a follow-up safety visit. In addition, subjects completing the Randomization Phase will be offered 48 weeks of open-label treatment as long as the PI believes open-label treatment offers an acceptable risk-benefit profile. Subjects who agree to enter the Extension Phase will not be required to wash-out of drug or complete the follow-up safety visit, but instead should continue dosing as specified in the extension phase. Subjects entering the Extension Phase would have their first Extension Visit four weeks after the Week 8 Randomization Phase visit. If there is a delay of two weeks or more in dosing between the Randomization Phase and the Extension Phase, subjects will be required to complete an Extension Baseline Visit. Thereafter, subjects will undergo visits every fourth week through Week 12 of this phase. Then subjects will undergo visits every 12 weeks up to Week 48 of this phase.

[2] = test system: subjects with spinocerebellar ataxia (SCA); experiment: Further analysis of Example 1 study: Modified SARA, 8 week change from baseline; details: for change in SARA score (difference BHV-4157 vs placebo): enriched genotypes
Excerpt: This example describes a further analysis of the study of Example 1.

[3] = test system: subjects with spinocerebellar ataxia (SCA); experiment: Same trial: Patient Global Impression of Change (PGI-C)
Excerpt: This is a patient self-reported global index scale that may be used to rate the response of a condition to a therapy.
as §1, §2

[4] = experienced sites/raters population
[5] = experienced sites/raters population, n = 37, week 8

Question: `CN(CC(=O)Nc1nc2ccc(OC(F)(F)F)cc2s1)C(=O)CNC(=O)CN` [BHV-4157, troriluzole] was tested. Which “Axial SARA [#1-4] change” value ([1]; STABLE subjects, n = 34, week 8) did it give?
Answer: The value was −0.27.

Question: And the “Responders, Response Definition ≥3 points (Total SARA)” value ([1]; Table 1, printed on line Total SARA STABLE, week 8)?
Answer: The value was 24%.

Question: What about the “Responders, Response Definition ≥ 1 point (Total SARA)” value ([1]; Table 1, printed on line Total SARA UNSTABLE, week 8) of the same compound?
Answer: The value was 59%.

Question: What about the “Total SARA change” value ([1]; UNSTABLE / NOT-STABLE subjects, n = 28, 140 mg QD, week 8) of the same compound?
Answer: Its value is −0.87.

Question: What about the “Total SARA, Δ Btw Groups” value ([1]; UNSTABLE subjects, BHV-4157 vs placebo, week 8) of the same compound?
Answer: Its value is 0.62.

Question: What about the “Total SARA, week 8 StdChg” value ([1]; n = 63, May-18) of the same compound?
Answer: Its value is 0.459.

Question: And the “Total SARA, week 8 Δ Mean” value ([1]; n = 63, May-18 analysis, listed as BHV)?
Answer: The value was −0.810.

Question: What about the “Total SARA, week 8 Δ Mean” value ([1]; n = 63, May-18 analysis, listed as BHV5157) of the same compound?
Answer: The value was −0.81.

Question: What about the “Total SARA, week 8 StdChg” value ([1]; n = 63, Sep-17 analysis) of the same compound?
Answer: Its value is 0.459.

Question: And the “Total SARA, week 8 Δ Mean” value ([1]; n = 63, Sep-17 analysis)?
Answer: Its value is −0.810.

Question: And the “Responders, Response Definition ≥1 point” value [1, 4]?
Answer: The value was 51.4%.

Question: What about the “Responders, Response Definition ≥3 points” value [1, 4] of the same compound?
Answer: The value was 21.6%.

Question: What about the “Appendicular [#5-8] change (LSmeans)” value [1, 5] of the same compound?
Answer: Its value is −0.52.

Question: What about the “Axial Items [#1-4] change (LSmeans)” value [1, 5] of the same compound?
Answer: The value was −0.47.

Question: What about the “Gait [#1] change (LSmeans)” value [1, 5] of the same compound?
Answer: Its value is −0.14.

Question: What about the “Total SARA change (LSmeans)” value [1, 5] of the same compound?
Answer: Its value is −1.37.

Question: And the “Responder Analysis, ≥3 points in All Subjects (n = 65)” value ([1]; lighter median)?
Answer: Its value is 33%.

Question: What about the “Change in Total SARA Score” value ([1]; lighter median (≤76.4 kg), all lighter subjects, n = 27, week 8) of the same compound?
Answer: Its value is −1.38.

Question: And the “ΔSARA (between groups)” value ([1]; lighter median, EXP Sites, BHV-4157 vs placebo)?
Answer: The value was −1.03.

Question: What about the “Change in Total SARA Score” value ([1]; lighter median, EXP Sites, n = 18) of the same compound?
Answer: The value was −1.64.

Question: And the “ΔSARA (between groups)” value ([1]; lighter median, Stable Subgroup, BHV-4157 vs placebo)?
Answer: The value was −0.83.

Question: And the “Change in Total SARA Score” value ([1]; lighter median, Stable Subgroup, n = 19)?
Answer: The value was −1.18.

Question: What about the “Appendicular Items [5-8] change” value ([1]; lighter median, n = 27) of the same compound?
Answer: Its value is −0.69.

Question: What about the “Axial Items [1-4] change” value ([1]; lighter median, n = 27) of the same compound?
Answer: Its value is −0.85.

Question: And the “Responder Analysis, ≥3 points in Stable Subjects (n = 36)” value ([1]; lighter median, printed on line EXP Sites)?
Answer: The value was 39%.

Question: And the “Responder Analysis, ≥3 points at Experienced sites (n = 36)” value ([1]; lighter median, printed on line Stable Subgroup)?
Answer: The value was 26%.

Question: What about the “Modified SARA, week 8 StdChg” value ([2]; All SCA, n = 63, May-18) of the same compound?
Answer: The value was 0.453.

Question: And the “Modified SARA, week 8 Δ Mean” value ([2]; All SCA, n = 63, May-18)?
Answer: The value was −0.429.

Question: What about the “Modified SARA, week 8 StdChg” value ([2]; SCA1 and SCA2, first Stable column, n = 31) of the same compound?
Answer: The value was 0.405.

Question: What about the “Modified SARA, week 8 Δ Mean” value ([2]; SCA1 and SCA2, first column headed Stable (−1 < diff < 1), n = 31, Stable 2 in Table 16) of the same compound?
Answer: The value was −0.387.

Question: And the “Modified SARA, week 8 StdChg” value ([2]; SCA1 and SCA2, n = 33)?
Answer: Its value is 0.399.

Question: And the “Modified SARA, week 8 Δ Mean” value ([2]; SCA1 and SCA2, n = 33, May-18)?
Answer: The value was −0.424.

Question: What about the “Modified SARA, week 8 StdChg” value ([2]; SCA1 and SCA2, second Stable column, n = 14) of the same compound?
Answer: Its value is 0.313.

Question: What about the “Modified SARA, week 8 Δ Mean” value ([2]; SCA1 and SCA2, second column headed Stable (−1 < diff < 1), n = 14, Stable 1 in Table 16) of the same compound?
Answer: Its value is −0.286.

Question: What about the “change in SARA score (difference BHV-4157 vs placebo)” value ([2]; stable 2 group, 8 weeks) of the same compound?
Answer: The value was 0.24.

Question: And the “change in SARA score (difference BHV-4157 vs placebo)” value ([2]; stable group 1, 8 weeks)?
Answer: Its value is 0.20.

Question: What about the “PGI Better and Definite . . .” value ([3]; Lighter at EXP sites) of the same compound?
Answer: The value was 19%.

Question: What about the “PGI Any Improvement” value ([3]; Lighter at EXP sites, n = 16) of the same compound?
Answer: The value was 45% (n = 16).

Question: And the “PGI “Better and Definite Improvement that has made a real & worthwhile difference”” value ([3]; Lighter sample)?
Answer: The value was 17%.

Question: And the “PGI Any Improvement” value ([3]; Lighter sample, n = 23)?
Answer: The value was 34% (n = 23).
